Experimental data as given in PubChem BioAssay (NCI).
Values joined by “and” are separate entries in the source; they are usually repeats but may differ in a detail not shown here. Identical values can stand only once.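 Five compound concentrations were applied to cells in 96-well plates for 48 hours; endpoints were derived by simple linear interpolation of the resulting dose-response curve. Here, GI50 denotes the concentration required for 50% inhibition of growth. The concentration for full growth arrest is given as TGI.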

Columns and labels:
Test in all cases: inhibition of tumour cell growth, NCI panel, 48 h
DMS 114 small cell lung = system: DMS 114 small cell lung
XF 498 CNS = system: XF 498 CNS
DLD-1 colon = system: DLD-1 colon
KM20L2 colon = system: KM20L2 colon
DMS 273 small cell lung = system: DMS 273 small cell lung
HOP-18 NSCLC = system: HOP-18 NSCLC
M19-MEL melanoma = system: M19-MEL melanoma
RXF-631 renal = system: RXF-631 renal
MDA-N = system: MDA-N

Structure (SMILES) | TGI (DMS 114 small cell lung) [µM] | TGI (XF 498 CNS) [µM] | TGI (DLD-1 colon) [µM] | TGI (KM20L2 colon) [µM] | TGI (DMS 273 small cell lung) [µM] | TGI (HOP-18 NSCLC) [µM] | TGI (M19-MEL melanoma) [µM] | TGI (RXF-631 renal) [µM] | other results
CC(=O)Nc1c(Nc2ccccc2)[nH]c(C)nc1=S | > 100 | > 100 | > 100 | > 100 | > 100 | – | – | – | –
COCN1COCN=C1NC#N | > 100 | > 100 | > 100 | > 100 | > 100 | > 100 | > 100 | > 100 | –
C[N+](C)(C)CC(=O)N/N=C(/C(=O)Nc1ccc(Br)cc1)C1C(=O)NC(=O)NC1=O | > 100 | – | > 100 | > 100 | > 100 | > 100 | > 100 | > 100 | –
COC(=O)N/N=C(\C)c1c(O)cc(C)oc1=O | – | – | > 100 | > 100 | – | – | – | > 100 | –
OC(COC(c1ccccc1)(c1ccccc1)c1ccccc1)C(O)CC1SCCS1 (centres undefined) | – | – | – | – | – | – | – | – | TGI (MDA-N): 60.1 µM
CC1=C(/C=C/C(C)=C/C2CC(N(C)C)=CC(=O)O2)C(C)(C)CCC1 (centres undefined) | 23.8 | 25.1 | 32.8 | – | 27.1 | 26.5 | 29.3 | 27.8 | –
O=C([CH-]C(=O)c1ccccc1)c1ccccc1.[CH-]1CCCCC1.[CH-]1CCCCC1.[CH-]1CCCCC1.[Sn+4] | – | – | – | 26.3 | – | – | – | – | GI50 (KM20L2 colon): 12.3 µM
CC(=O)c1c2c(cc3c1CC1(C3)Cc3cc4c(c(C(C)=O)c3C1)CCC4)CCC2 | > 100 | > 100 | > 100 | – | – | > 100 | > 100 | > 100 | –
CN(C)CCNC(=O)c1cccc2cc3c(Cl)cccc3nc12 | 3.69 | 1.64 | 4.46 | 4.75 | > 100 | > 27.6 | 3.18 | > 100 | –
O=C(/C=C\c1ccc([N+](=O)[O-])cc1)c1ccccc(=O)c1O | – | – | – | – | – | – | – | – | TGI (MDA-N): > 30.5 µM
CC(=O)[O-].Cn1ccnc1CNCc1nccn1C.[Cu+2].[O-][Cl+3]([O-])([O-])[O-] | > 100 | – | > 100 | > 100 | > 100 | > 100 | – | – | GI50 (HOP-18 NSCLC): > 100 µM; GI50 (DMS 114 small cell lung): > 100 µM; GI50 (DLD-1 colon): > 100 µM; GI50 (KM20L2 colon): > 100 µM; GI50 (DMS 273 small cell lung): > 100 µM
CN(C)c1ccc2oc(=O)c3ccccc3c2c1 | – | – | – | – | – | – | – | – | TGI (MDA-N): > 100 µM
CC(C)(C)C1CCC2c3c([nH]c4ccccc34)C3C(=O)N(c4ccc(Cl)cc4)C(=O)C3C2C1 (centres undefined) | – | – | – | – | – | – | – | – | GI50 (MDA-N): 94.9 µM and > 10 µM; TGI (MDA-N): > 100 µM
O=C(O)[C@H](NS(=O)(=O)c1ccc(F)cc1)c1ccccc1 | > 100 | > 100 | > 100 | > 100 | > 100 | > 100 | > 100 | – | –
CCOC(=O)C(=O)CC1=Nc2ccccc2SC(c2cccc(C)c2)C1 (centres undefined) | 35 | – | 34.1 | 32.2 | 37.9 | – | 40.9 | 29.4 | –
Cc1cccc(C)c1NC(=O)C1=NC(=S)NC(c2ccccc2)C1c1nc2ccccc2s1 (centres undefined) | > 100 | > 100 | > 100 | > 100 | > 100 | > 100 | > 100 | – | –
CCOP(=O)(OCC)C1CCCOC1=O (centres undefined) | > 100 | > 100 | > 100 | > 100 | > 100 | > 100 | > 100 | > 100 | –
O=[N+]([O-])C=C(c1ccc(Cl)cc1)c1ccc(Cl)cc1 | 28.5 | – | 32 | 38.9 | 20.1 | – | – | – | –

Structure (SMILES) | TGI (DMS 114 small cell lung) [µM] | TGI (XF 498 CNS) [µM] | TGI (DLD-1 colon) [µM] | TGI (KM20L2 colon) [µM] | TGI (DMS 273 small cell lung) [µM] | TGI (HOP-18 NSCLC) [µM] | TGI (M19-MEL melanoma) [µM] | TGI (RXF-631 renal) [µM] | other results
C[CH2][Ge]([CH2]C)([CH2]C)[O]C(=O)C(OC(C)=O)c1ccccc1 (centres undefined) | > 100 | 31 | > 100 | > 100 | – | > 100 | > 100 | > 100 | GI50 (HOP-18 NSCLC): > 100 µM; GI50 (DMS 114 small cell lung): 42.1 µM; GI50 (M19-MEL melanoma): > 100 µM; GI50 (DLD-1 colon): > 100 µM; GI50 (KM20L2 colon): > 100 µM; GI50 (RXF-631 renal): > 100 µM
N#C/C(=C/c1ccc2c(c1)OCO2)C(=O)c1ccccc1 | – | > 100 | > 100 | > 100 | – | > 100 | > 100 | – | –
Cc1cccc(C2SCc3nc4ccccc4n32)c1 (centres undefined) | 28.3 | – | 75.9 | – | – | – | 96.8 | – | –
COc1ccc2c3c([nH]c2c1[N+](=O)[O-])C(C)N(Cc1ccccc1)CC3 (centres undefined) | > 100 | – | > 100 | > 100 | 11.6 | – | – | – | –
CCOC(=O)Oc1cc2c(c(OC)c1OC)-c1ccc(OC)c(=O)cc1C(NC(C)=O)CC2 (centres undefined) | 0.0301 | > 100 | – | 0.0866 | > 100 | > 100 | > 100 | > 22.5 | TGI (MDA-N): < 0.0216 µM
Nc1ccc(C(=O)N/C(=C\c2cccc([N+](=O)[O-])c2)c2nc3[nH]c(=S)[nH]c(=O)c3[nH]2)cc1 | > 100 | 34.3 | > 100 | > 100 | – | – | > 100 | > 100 | TGI (MDA-N): > 100 µM
O=C(/C=C/c1ccccc1F)c1ccc(Cl)c(Cl)c1 | 55.5 | 77 | > 62.9 | > 100 | > 100 | > 100 | 58.1 | > 100 | –
CC1CC[P+](c2ccccc2)(c2ccccc2)c2c1ccc1ccccc21 (centres undefined) | – | – | – | – | – | – | – | – | GI50 (MDA-N): 2.98 µM; TGI (MDA-N): > 28.3 µM
c1ccc(C2OC3(CCC[C@H]4C[C@H]43)O[C@H]2c2ccccc2)cc1 (some centres undefined) | 74.9 | 43.8 | > 100 | > 100 | > 100 | – | 84.8 | > 100 | –
CCc1cccc(C)c1NC(=O)C(=O)CC(=O)c1ccc(Cl)s1 | – | – | > 100 | > 100 | – | > 100 | > 100 | > 100 | –
CC1/C(=N\O)CC(c2ccccc2)N(C)C1c1ccccc1 (centres undefined) | > 100 | – | > 100 | > 100 | > 100 | – | > 100 | > 100 | –
O=C1C=CC=C/C1=C1/SC(c2ccccc2)=C(O)N1c1ccccc1 | > 100 | – | – | > 100 | > 100 | – | > 100 | – | –
CN(C)C(=N/O)/C(=N\O)N(C)C | > 100 | > 100 | > 100 | > 100 | > 100 | > 100 | > 100 | > 100 | –
CN(c1ccc(C(=O)c2ccc(N(C)S(C)(=O)=O)cc2)cc1)S(C)(=O)=O | 61.1 | – | > 100 | > 100 | – | – | > 100 | – | –
CC1=C(C(=O)Nc2ccccc2)C(c2cccc3ccccc23)C(C(=O)Nc2ccccc2)=C(C)N1 | 55.7 | – | > 100 | 36.2 | 40.9 | 46.8 | 34.5 | – | –
Cc1ccc(S(=O)(=O)SC(C)(C)C)cc1 | 35.6 | 32.1 | 35.3 | – | 47.5 | > 100 | > 100 | > 100 | –
O=C1N2Cc3c4ccc5c3CN3C(=O)N6Cc7c(ccc(c7CN1C6(c1ccccc1)C23c1ccccc1)OCCOCCNCCOCCO4)OCCOCCNCCOCCO5 (centres undefined) | > 100 | > 100 | > 100 | > 100 | > 100 | 28.9 | > 100 | > 100 | –
O=S(=O)(NNc1ccccc1)c1ccccc1 | – | – | – | – | – | – | – | – | TGI (MDA-N): 25.3 µM
